Where “and” joins values, the source holds several entries; their conditions need not be identical. Equal values may be shown once. Entries after “also recorded” stand apart in the source; their conditions may differ. Read-outs that look alike come from different tables or passages of the source.
How the values were obtained:
[1] = target: T1, human plasma butyrylcholinesterase (BuChE) (Homo sapiens, UniProt P06276); assay: Kinetic parameters and type of BuChE inhibition (Hanes–Woolf); type: biochemical; settings: for Vmax(i) BuChE: mean ± SD
T1 construct: Plasma for determination of BuChE activity was obtained by centrifuging the blood; from tissue; host or cells: plasma of healthy human donors
T1 sequence (P06276 29-602): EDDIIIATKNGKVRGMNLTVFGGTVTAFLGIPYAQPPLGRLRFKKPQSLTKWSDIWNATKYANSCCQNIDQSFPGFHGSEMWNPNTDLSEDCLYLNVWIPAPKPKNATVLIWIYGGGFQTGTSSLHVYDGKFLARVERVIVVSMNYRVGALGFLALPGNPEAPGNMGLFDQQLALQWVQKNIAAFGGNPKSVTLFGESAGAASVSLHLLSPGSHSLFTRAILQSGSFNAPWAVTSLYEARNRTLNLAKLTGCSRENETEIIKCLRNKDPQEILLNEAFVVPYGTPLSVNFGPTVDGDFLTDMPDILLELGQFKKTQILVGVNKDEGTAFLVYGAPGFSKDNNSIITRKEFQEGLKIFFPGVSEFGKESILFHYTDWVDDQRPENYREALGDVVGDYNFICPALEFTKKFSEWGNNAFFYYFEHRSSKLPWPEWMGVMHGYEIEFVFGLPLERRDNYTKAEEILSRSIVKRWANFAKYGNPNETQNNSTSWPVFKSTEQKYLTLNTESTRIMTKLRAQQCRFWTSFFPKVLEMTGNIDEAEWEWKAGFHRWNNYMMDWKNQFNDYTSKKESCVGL
Method: (§1) The absorbance was recorded at λ = 436 nm using a CECIL 2021 spectrophotometer (CECIL Instruments Limited, Cambridge, UK) with a thermostatic water flow (temperature 37° C).
(§2) AChE Selectivity Index (SI) was calculated with the aid of the following formula: SI = IC50 of BChE/IC50 of AChE. In turn BuChE SI was defined as IC50 of AChE/IC50 of BChE. Linear regression (Hanes–Woolf plots) were used to estimate the maximal velocity (Vmax) and the Michaelis constant (Km).
(§3) To establish the type of inhibition, additional experiments were conducted with various concentrations of substrates (ATC, BTC), and the kinetic parameters of the enzymatic reactions were obtained using Hanes–Woolf equation, which is a graphical representation of enzyme kinetics in which the ratio of the initial substrate concentration [S] to the reaction velocity v is plotted against [S]. […]

[2] = Intracellular uptake in in vitro cellular model (unpublished data); type: in vitro ADME; settings: depending on the cell line
[3] = target: T2, AChE (Homo sapiens, UniProt P22303); type: biochemical
T2 construct: 400-fold diluted solution of haemolysed erythrocytes or diluted plasma (200 times) was incubated; from tissue; host or cells: haemolysed erythrocytes of healthy human donors
T2 sequence (P22303 other isoform, or with tags, fused parts or gaps): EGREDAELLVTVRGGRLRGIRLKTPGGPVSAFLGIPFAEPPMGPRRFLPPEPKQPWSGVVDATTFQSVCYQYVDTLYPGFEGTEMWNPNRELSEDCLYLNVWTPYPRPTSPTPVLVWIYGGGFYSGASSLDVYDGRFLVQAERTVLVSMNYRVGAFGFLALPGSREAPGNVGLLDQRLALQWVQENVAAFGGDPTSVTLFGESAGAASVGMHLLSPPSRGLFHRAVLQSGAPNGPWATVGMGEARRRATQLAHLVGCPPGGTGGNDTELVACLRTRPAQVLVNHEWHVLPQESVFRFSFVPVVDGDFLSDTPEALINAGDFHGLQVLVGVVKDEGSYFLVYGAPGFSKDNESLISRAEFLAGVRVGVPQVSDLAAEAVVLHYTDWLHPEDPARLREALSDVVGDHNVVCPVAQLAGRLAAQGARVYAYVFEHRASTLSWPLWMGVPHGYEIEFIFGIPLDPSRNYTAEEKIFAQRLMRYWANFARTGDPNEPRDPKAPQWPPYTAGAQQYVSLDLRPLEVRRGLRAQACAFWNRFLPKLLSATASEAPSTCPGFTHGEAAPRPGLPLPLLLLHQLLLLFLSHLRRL

[4] = target: T3, human erythrocyte acetylcholinesterase (AChE) (Homo sapiens, UniProt P22303); assay: Kinetic parameters and type of AChE inhibition (Hanes–Woolf); type: biochemical; settings: for Vmax(i) AChE: mean ± SD
T3 construct: from tissue; host or cells: haemolysed erythrocytes of healthy human donors
T3 sequence (P22303 other isoform, or with tags, fused parts or gaps): as above
Method: as §1, §2, §3

[5] = test system: erythrocytes; settings: 6–1500 μmol/L; cited from earlier work
[6] = target: T1, human plasma butyrylcholinesterase (BuChE); assay: biochemical
Method: (§4) Blood samples were obtained from healthy donors from the Voievodal Specialized Hospital in Łódź, Poland (Wojewódzki Specjalistyczny Szpital im. Dr W. Biegańskiego w Łodzi). The blood was collected into vacuum tubes containing sodium citrate. Erythrocytes were separated from plasma by centrifugation (3000 × g, 10 min, 20 °C) with a Micro 22 R centrifuge (Hettich ZENTRIFUGEN, Tuttlingen, Germany) and washed three times with 0.9% saline. Afterwards, red cells were haemolysed by freezing and stored at a temperature of –30 °C; before each experiment, they were restored at 37° C for 15 min and used to determine AChE activity. […] The studies on the biological material were approved by the Bioethics Committee of the Medical University of Lodz (RNN/27/18/KE).
(§5) The activity of both cholinesterases (AChE and BuChE) were conducted using a spectrophotometric method developed by Ellman with previously described modifications[25]^,[30]. […] 400-fold diluted solution of haemolysed erythrocytes or diluted plasma (200 times) was incubated for 15 min (37° C) with DTNB and tested compound at an appropriate concentration, and the reaction was started by addition of substrate (ATC or BTC). The final volume of a sample was 500 µL.
as §2

[7] = target: T3, human erythrocyte acetylcholinesterase (AChE); assay: biochemical
Method: as §4, §5, §2

[8] = target: T4, Aβ42 peptide (Homo sapiens, UniProt P05067); assay: Beta-amyloid (Aβ 1–42) aggregation, SensoLyte ThT kit; type: biochemical
T4 construct: Beta-amyloid (Aβ 1–42) aggregation studies were conducted using SensoLyte ThT Aβ42 Aggregation kit; purchased AnaSpec, Inc, Fremont, CA
T4 sequence (P05067 672-713): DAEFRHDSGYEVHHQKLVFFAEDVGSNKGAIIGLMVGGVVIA
Method: Beta-amyloid (Aβ 1–42) aggregation studies were conducted using SensoLyte ThT Aβ42 Aggregation kit (AnaSpec, Inc, Fremont, CA). Aβ42 peptide was dissolved in cold (4 °C) assay buffer and left to hydrate for a few minutes. The solution was spined at 10,000 rpm for 5 min at 4 °C to centrifuge out any precipitated material. […] The final volume of the test samples was 100 µL. Simultaneously, the positive control and negative control containing morin at the final concentration of 100 µmol/L were established. […] The measurements of fluorescence intensity expressed as relative fluorescence units (RFU) were taken for 90 min with 5 min intervals. The fluorescence intensity measured for positive control equals 100% of Aβ aggregation and was used for estimation of inhibition properties of tested biguanides.
Statistical analysis of data obtained in Aβ aggregation assay was conducted with a commercially available package (GraphPad Prism 5, La Jolla, CA). The results were expressed as the mean ± standard deviation (SD) of measurements conducted in triplicates or quadruplicates. One or two-way ANOVA and subsequent post hoc tests were used for intergroup comparisons. The results were considered significant at p values lower than 0.05.

[9] = test system: human umbilical vein endothelial cells (HUVECs); assay: HUVEC viability and integrity, real-time electrical impedance system (unpublished data); type: cell-based
Method: At lower concentrations of substrate, BuChE activity is related to Michaelis–Menten kinetics and its enzymatic activity is based on the formation of an enzyme–substrate complex [ES]. At higher substrate levels (> 1 mM) BuChE presents greater activity related to the formation of a substrate-activated complex [SES][33]. […] This fact is of vital importance when studying BuChE inhibitors as in vivo the concentration of ACh in the synaptic cleft is estimated to be about 5 mM^33, which imply that substrate activated form of BuChE is present in the synaptic cleft.

[10] = target: T5, BuChE (Homo sapiens, UniProt P06276); assay: BuChE inhibition with excess of substrate (BTC); type: biochemical; settings: for inhibition at 375 µM: compound at 375 µmol/L
T5 construct: Plasma for determination of BuChE activity was obtained by centrifuging the blood; from tissue; host or cells: plasma of healthy human donors
T5 sequence (P06276 29-602): as the sequence (P06276 29-602) above

[11] = target: T1, human plasma butyrylcholinesterase (BuChE); settings: published previously; cited from earlier work

Compound: CN(C)C(=N)N=C(N)NS(=O)(=O)c1ccc(C(F)(F)F)cc1[N+](=O)[O-] [Compound 5]
- I: type of inhibition, BuChE [1]: M (M: mixed type)
- type of BuChE inhibition [1]: mixed inhibition; also recorded: mixed manner; also recorded: Mixed type
- vmax BuChE, mean ± SD ([1]; B: inhibitor at 1/3 of IC50): 242.44 ± 12.47 mA/min
- Vmax(i) BuChE ([1]; B: inhibitor at 1/3 of IC50): 0.242 ± 0.012 A/min
- vmax BuChE, mean ± SD ([1]; C: inhibitor at IC50): 202.78 ± 2.42 mA/min
- Vmax(i) BuChE ([1]; C: inhibitor at IC50): 0.202 ± 0.002 A/min
- vmax BuChE, individual experiments B1–B3 ([1]; inhibitor at 1/3 of IC50): 243.730 mA/min and 229.384 mA/min and 254.233 mA/min
- vmax BuChE, individual experiments C1–C3 ([1]; inhibitor at IC50): 204.771 mA/min and 200.088 mA/min and 203.508 mA/min
- intracellular uptake relative to metformin [2]: 70–80 fold
- type of AChE inhibition ([3]; at 1/2 IC50 for AChE): mixed-type
- Vmax AChE ([3]; each at 1/2 IC50 for AChE: metformin 1175, donepezil 0.0125, compound 5 106.0 µmol/L, alone or in mixture): 0.206 ± 0.008 A/min
- I: type of inhibition, AChE [4]: M (M: mixed type)
- type of AChE inhibition [4]: mixed-type; also recorded: mixed inhibition; also recorded: mixed way
- vmax AChE, mean ± SD ([4]; B: inhibitor at 1/3 of IC50): 175.32 ± 33.25 mA/min
- Vmax(i) AChE ([4]; B: inhibitor at 1/3 of IC50): 0.175 ± 0.033 A/min
- vmax AChE, mean ± SD ([4]; C: inhibitor at IC50): 146.12 ± 40.50 mA/min
- Vmax(i) AChE ([4]; C: inhibitor at IC50): 0.146 ± 0.040 A/min
- vmax AChE, individual experiments B1–B3 ([4]; inhibitor at 1/3 of IC50): 183.000 mA/min and 204.073 mA/min and 138.914 mA/min
- vmax AChE, individual experiments C1–C3 ([4]; inhibitor at IC50): 173.750 mA/min and 165.000 mA/min and 99.631 mA/min
- erythrocytes membrane disintegration [5]: does not contribute to the erythrocytes membrane disintegration
- SI BuChE ([6]; IC50(AChE)/IC50(BChE)): 0.31
- IC50 ([6]; human plasma BuChE, mean ± SD of three independent experiments): 686 ± 86.4 µM
- SI AChE ([7]; IC50 BChE/IC50 AChE): 3.23
- inhibition at 150 µM ([7]; compound at 150.0 µmol/L): 35 ± 7.18%
- IC50 ([7]; human erythrocyte AChE, mean ± SD of three independent experiments): 212 ± 48.3 µM
- activity vs morin 100 µmol/L ([8]; 100 µmol/L, two-way ANOVA): significantly lower in comparison with morin
- inhibitory property vs morin 100 µmol/L ([8]; 200 µmol/L, two-way ANOVA, p > 0.05): comparable with those of morin
- inhibition at 200 µM ([8]; 200 µmol/L, vs control): ~20%
- Aβ aggregation decreased up to ([8]; 100 and 200 µmol/L, after 60 min of reaction initiation): ~80%
- decrease in HUVEC adhesion and viability ([9]; 300 μmol/L, 12–72 h of incubation): ~20%
- effect on HUVEC viability ([9]; 6–100 μmol/L): did not affect cell viability
- BuChE inhibition, maximal ([10]; BTC 2.5 μmol/mL, various compound concentrations (Figure 8B)): up to 31.89 ± 6.22%
- inhibition at 375 µM ([10]; BTC 0.75 mmol/L): 27.5 ± 8.61%
- inhibition at 375 µM ([10]; BTC 2.5 mmol/L): ≤ 15.6%

Compound: [H]/N=C(/N)N/C(=N/[H])NCCc1ccccc1 [Phenformin, phenformin, reference compound]
- inhibition at 150 µM ([6]; at 150 µmol/L): 44.7 ± 1.23%
- IC50 [11]: 259 ± 31 µM

Source: publication PMC6161601 (Journal of Enzyme Inhibition and Medicinal Chemistry, 2018)
